# PubChem BioAssay AID1259418 (Broad Institute, 2018)
# Where “and” joins values, the source holds several entries; their conditions need not be identical. Identical values can stand only once. Inconclusive results are not listed. Calls of active or inactive are those of the source.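 Rule for the calls: active = fitted half-maximal concentration of signal decrease at or below twice the sample's top tested concentration; inconclusive = flat curve between -70 and -30 percent, or poor fit; inactive = flat within 30 percent, signal rise, or potency above limit.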
# Target: T. gondii ME49Luc in IFN-y HeLa, luciferase, 72 h
# Assay: T. gondii growth inhibition with IFN-gamma, dose response, cell-based, ME49Luc, HeLa, luciferase, 72 h (AID 1259418)
row,SMILES,AC50
1,COc1ccccc1CNC(=O)CC1N=C2c3ccccc3N=C(SCc3ccccc3Cl)N2C1=O (configuration not stated),20.4 µM
2,Cc1ccc2c(c1C)-n1cccc1C1(CCN(C(=O)c3ccccc3F)CC1)N2,> 39 µM (inactive)
3,Cn1nc2c(c1C(=O)Nc1ccc(N3CCCCC3)c(F)c1)CCCC2,15.9 µM
4,COc1cc(Nc2nc(SCc3ccc(F)cc3)nc3ccccc23)cc(OC)c1,13.2 µM
5,CCCCNC(=O)CCC1N=C2c3ccccc3N=C(SCc3ccc(F)cc3)N2C1=O (configuration not stated),24.8 µM
6,COc1ccccc1C(=O)N1CCC2(CC1)Nc1cc(F)ccc1-n1cccc12,> 39 µM (inactive)
7,Cc1oc(-c2ccccc2)nc1CSc1nc2c(c(=O)[nH]1)CN(Cc1ccccc1)CC2,15.4 µM
8,COc1cccc(NC(=O)N2CC(=O)N3[C@@H](CO)[C@H](c4ccc(C#CCC5CCCC5)cc4)[C@@H]3C2)c1,20 µM
9,N#Cc1cccc(-c2ccc(C3[C@@H]4CN(C(=O)c5ccc6c(c5)OCO6)C[C@H]3N4)cc2)c1 (some centres not stated),14.5 µM and 9.62 µM
10,COc1ccc(-c2ccc3nc(CO)[nH]c3c2)cc1Cl,16.2 µM
11,O=C(CCC1N=C2c3ccccc3N=C(SCc3ccc(F)cc3)N2C1=O)NC1CCCCC1 (configuration not stated),16.2 µM
12,Cc1ccc(-c2cc(C(F)(F)F)nn2-c2ccc(S(N)(=O)=O)cc2)cc1,22.2 µM
13,O=C(CC1N=C2c3ccccc3N=C(SCc3cccc(F)c3)N2C1=O)NC1CCCCC1 (configuration not stated),30 µM
14,COc1ccc(NS(=O)(=O)c2cc3c4c(c2)CCC(=O)N4CCC3)cc1OC,28.4 µM
15,Cc1ccccc1-c1ccc(C2[C@@H]3CN(Cc4cncnc4)C[C@H]2N3)cc1 (some centres not stated),19 µM
16,COc1cccc(NC(=O)N2CCN(Cc3nc(-c4ccc(C)cc4)oc3C)CC2)c1,22 µM
17,Cc1ccc(CNC2=NCCNC23CCN(S(=O)(=O)c2cc(C)c(C)cc2C)CC3)cc1,4.79 µM
18,Cc1ccc(C)c(S(=O)(=O)N2CCC3(CC2)NCCN=C3NCc2ccccc2F)c1,28.5 µM
19,COc1ccccc1C1CN(Cc2cccc(O)c2)Cc2ccccc2O1 (configuration not stated),34.4 µM and 27.5 µM
20,O=C(Cc1ccccn1)N1CC(=O)N2[C@H](CO)[C@H](c3ccc(C#CCC4CCCC4)cc3)[C@H]2C1,19.4 µM and 8.78 µM
21,Cc1ccc(-c2nc(CN3CCN(C(=O)Nc4ccc(C)c(Cl)c4)CC3)c(C)o2)cc1,> 39 µM (inactive)
22,N#Cc1cccc(-c2ccc3c(c2)[C@@H]2[C@@H](CCN2C(=O)c2ccccc2F)[C@@H](CO)N3)c1,23.3 µM
23,CCc1cc(C2CCCN2C(=O)c2cc(C(F)(F)F)nn2C)on1 (configuration not stated),> 39 µM (inactive)
24,O=C(c1ccc(-n2nc(C(F)(F)F)c3c2CCCC3)cc1)N1CCC2(CC1)OCCO2,1.4 µM

row,SMILES,AC50
1,FC(F)(F)C1CN(c2cc(-c3ccccc3)nc3ccccc23)CCO1 (configuration not stated),25.1 µM
2,Cc1ccc(CNC2=NCCNC23CCN(S(=O)(=O)c2ccc4c(c2)CCCC4)CC3)cc1,19.4 µM
3,O=C(CCC1N=C2c3ccccc3N=C(SCc3ccc(F)cc3)N2C1=O)NCCc1ccccc1 (configuration not stated),37.8 µM
4,COc1ccc2c(c1)NC1(CCN(C(=O)C3CCCCC3)CC1)c1cccn1-2,> 39 µM (inactive)
5,C=C(C)[C@@H]1CC[C@]2(C(=O)O)CC[C@]3(C)[C@H](CC[C@@H]4[C@@]5(C)CC[C@H](O)C(C)(C)[C@@H]5CC[C@]43C)[C@@H]12,30 µM
6,Cc1ccccc1-c1ccc([C@H]2[C@H](CO)N3C(=O)CN(C(=O)c4ccncc4)C[C@@H]23)cc1,21.5 µM
7,CCSc1ccc(-c2sc(-c3ccc(OC)cc3)nc2C)nn1,> 39 µM (inactive)
8,Cc1nc(CCNC(=O)[C@H]2CCCN2C(=O)c2cccc(F)c2)cs1,29.2 µM
9,CN(C[C@H]1N[C@@H](CO)[C@@H]1c1ccc(C2=CCCC2)cc1)C(=O)c1cccc(F)c1,15.2 µM and 3.49 µM
10,CCc1nc(OCC(=O)Nc2cccc(Br)c2)c2ccccc2n1,> 39 µM (inactive)
11,Cc1ccc(N(Cc2nc(-c3ccccc3)oc2C)S(=O)(=O)c2cccs2)cc1,3.53 µM
12,CCCC(C)c1c(-c2ccccc2)ncn1Cc1cnc(C)cn1 (configuration not stated),33.4 µM
13,N#C[C@H]1[C@@H](c2ccc(-c3cccnc3)cc2)[C@@H](CO)N1C(=O)Nc1ccc(F)cc1,12.7 µM
14,CC(=O)O.CC(=O)O.[Cl][Pt+2][Cl].[NH-]C1CCCCC1.[NH2-],25.4 µM
15,NCCCCCCCCCCNS(=O)(=O)c1cccc2c(Cl)cccc12,21.2 µM
16,COc1ccc(S(=O)(=O)N2CSC[C@@H]2C(=O)NCCc2csc(-c3ccccc3)n2)cc1,17.6 µM
17,CC(C)(C)NC(=O)[C@@H]1CC2CCCCC2CN1C[C@@H](O)[C@H](Cc1ccccc1)NC(=O)[C@H](CC(N)=O)NC(=O)c1ccc2ccccc2n1 (some centres not stated),17.8 µM
18,COc1ccccc1CNC(=O)CC1N=C2c3ccccc3N=C(SCc3cc(=O)n4cc(Cl)ccc4n3)N2C1=O (configuration not stated),29.6 µM
19,Cc1oc(-c2cccc(Cl)c2)nc1CN1CCc2c(sc3c2CCCC3)C1c1ccccc1 (configuration not stated),6.85 µM
20,COc1ccc(-c2nc(NCC3CCN(Cc4ccc(C)cc4)CC3)c3ccccc3n2)cc1,8.66 µM
21,Cc1nc(OCC(=O)Nc2ccc(Cl)cc2)c2ccccc2n1,> 39 µM (inactive)
22,C1=C(c2ccccc2)CC(c2ccccc2)=NN=C1c1ccccc1,15.6 µM
23,O=C(CC1Nc2c3ccccc3nc(=S)n2C1=O)NCCN1CCN(c2cccc(Cl)c2)CC1 (configuration not stated),37.1 µM
